≈ marks a conversion by molar mass, not a printed value. Read-outs that look alike come from different tables or passages of the source.
Experiments:
[1] = tested on: P. falciparum malaria parasite clone D6 (chloroquine sensitive); assay: In vitro anti-malarial activity, [3H]hypoxanthine uptake, D6 clone; type: cell-based, Plasmodium falciparum
Text: (§1) For in vitro toxicological studies, the following cell line was chosen: human adult liver epithelial cells (THLE-3). THLE-3 cells express phenotypic characteristics of normal adult liver epithelial cells and constitute a valuable model for pharmacotoxicological studies.
(§2) Two P. falciparum malaria parasite clones, W2 and D6, from Malaria Research and Reference Reagent Resource Center (MR4), were utilized in susceptibility testing. […] Test compounds were initially dissolved in DMSO and diluted 400 fold in RPMI 1640 culture medium supplemented with 25 mM Hepes, 32 mM NaHCO3 and 10% Albumax I (Gibco, N.Y.). These solutions were subsequently serially diluted two-fold with a Beckman Biomek® 1000 Robot (Fullerton, Calif.) over 11 different concentrations. The parasites were exposed to serial dilutions of each compound for 48 hrs and incubated at 37° C. with 5% O2, 5% CO2 and 90% N2 prior to the addition of [^3H]hypoxanthine. After a further incubation of 18 hrs, parasite DNA was harvested from each microtiter well using Packard Filtermate™ 196 Harvester (Meriden, Conn.) onto glass filters. Uptake of [^3H]hypoxanthine was measured with a Packard TopCount Liquid Scintillation Counter (Packard Instrument Co.).

[2] = tested on: human adult liver epithelial cells (THLE-3); assay: In vitro toxicity evaluation, Sulforhodamine B; type: cell-based; conditions: for IC50: Homo sapiens, read-out: IC50 THLE-3; for Selectivity, IC50 (THLE-3)/IC50 (D6): ratio THLE-3 vs D6
Protocol: as §1
Human adult liver epithelial cells (THLE-3) was maintained in tissue culture flasks in Waymouth's medium (Gibco, N.Y.) supplemented with 10% fetal bovine serum. Toxicity tests were performed in 96-well tissue culture plates using the protein-binding dye Sulforhodamine B. Test compounds were serially diluted and added to empty wells of the 96-well plate. THLE-3 cells in their culture medium were immediately seeded into the wells. Solvent blanks (no compound) were run in each test. After 72 hours under culture conditions cells were fixed to the plate by layering 50% TCA (4° C.) over the growth media in each well to produce a final TCA concentration of 10%. After incubating for one hour at 4° C., cultures were washed five times with tap water and left air-dried. Wells were stained for 30 min. with 0.4% (w/v) SRB in 1% acetic acid and washed four times with 1% acetic acid. Cultures were left air-dried and bound dye was solubilized with 10 mM Tris base (pH 10.5) for 15 min. on a gyratory shaker at room temperature. A Spectra MAX Plus Microtiter Plate Reader (Molecular Devices, Menlo Park, Calif.) was used to measure the optical density at wavelengths of 490-530 nm.

[3] = tested on: P. falciparum malaria parasite clone W2 (chloroquine resistant); assay: In vitro anti-malarial activity, [3H]hypoxanthine uptake, W2 clone; type: cell-based, Plasmodium falciparum
Text: as §1, §2

P. berghei in mice [4] = type: in vivo; conditions: for toxicity in mice: highest dose tested; for toxicity in mice / blood schizonticidal activity, in words: oral
Protocol: Drugs were mixed in 0.5% hydroxycellulose 0.1% Tween 80 and administered orally b.i.d. on days 3, 4 and 5 postinfection. CD-1 male or female mice, 5 weeks of age, were infected with 5×10^4 parasitized erythrocytes of Plasmodium berghei KBG-173 mm strain. Blood films were taken on day +6 and weekly thereafter until day +60. Parasitemias were calculated and SD90 value (dose suppressing 90% of the parasites in treated groups compared with the infected non-treated controls) on day +6 postinfection. Mortality data was tabulated for 60 days at which time all mice surviving that were blood film negative were considered cured.
[…] The activity of these compounds were compared with the untreated control: In untreated controls, death occurs within 8-9 days. Compounds which are effective against Plasmodium berghei infection increase the mean survival time of the infected animals when compared with the untreated controls. Mice that survive after thirty days and are free of parasites in blood are considered cured.
Efficacy of the drug is determined by the number of cures at the end of a 30 day period and the increase in mean survival time over the control (ΔMST). The effect of the test drugs also could be determined by the reduction of the parasitemia (percentage of the red blood cells detected with the parasites) over the untreated control on day 6, one day after the treatment is completed. Both these methods yield virtually identical results. If the dose of test compounds are inadequate, after initial clearance, residual parasites will multiply and relapses will occur within thirty days.

[5] = tested on: Plasmodium berghei KBG-173 in mice; assay: Prophylactic test in mice, oral; type: in vivo; conditions: for Mice infected and treated/Mice surviving day 60: oral; for protection from malaria (oral prophylactic activity): single dose of 0.5 mg/kg within 2 days pre-infection through 2 days post-infection
Protocol: Compounds were tested for oral prophylactic activity.
Drugs were mixed in 0.5% hydroxycellulose 0.1% Tween 80 and administered orally b.i.d. either on day 5, 4, 3, 2, or 1 prior to the infection or 1 or 2 days postinfection. CD-I male or female mice, 5 weeks of age, were infected with 5×10^4 parasitized erythrocytes of Plasmodium berghei KBG-173 mm strain. Blood films were taken on day +6 and weekly thereafter until day+30. […]

P. berghei in mice [6] = assay: Suppressive blood schizontocidal test in mice, subcutaneous single dose; type: in vivo, Plasmodium berghei; conditions: for Mice surviving 60 days/Mice infected and treated: 72 h after infection
Protocol: Mice were treated with a single dose of the compound administered subcutaneously 72 h after infection. Number of cures is the number of mice surviving, out of five, 60 days postinfection.

[7] = Plasmodium falciparum, D6; read-out: IC50 D6 Strain
[8] = THLE3, THLE-3 cells, 72 hours, toxicity
[9] = Plasmodium falciparum, W2; read-out: IC50 W2 Strain
[10] = oral dose 0.25 mg/kg/day (total dose 0.75 mg/kg)
[11] = oral dose 1.0 mg/kg/day (total dose 3.0 mg/kg)
[12] = oral dose 4.0 mg/kg/day (total dose 12 mg/kg)
[13] = oral dose 16 mg/kg/day (total dose 48 mg/kg)
[14] = oral dose 64 mg/kg/day (total dose 192 mg/kg)
[15] = day of treatment 1, dose 0.5 mg/kg
[16] = day of treatment 1, dose 2 mg/kg
[17] = day of treatment 1, dose 8 mg/kg
[18] = day of treatment 1, dose 32 mg/kg
[19] = day of treatment 2, dose 0.5 mg/kg
[20] = day of treatment 2, dose 2 mg/kg
[21] = day of treatment 2, dose 8 mg/kg
[22] = day of treatment 2, dose 32 mg/kg
[23] = day of treatment −1, dose 0.5 mg/kg
[24] = day of treatment −1, dose 2 mg/kg
[25] = day of treatment −1, dose 8 mg/kg
[26] = day of treatment −1, dose 32 mg/kg
[27] = day of treatment −2, dose 0.5 mg/kg
[28] = day of treatment −2, dose 2 mg/kg
[29] = day of treatment −2, dose 8 mg/kg
[30] = day of treatment −2, dose 32 mg/kg
[31] = subcutaneous single dose 1 mg/kg
[32] = subcutaneous single dose 2 mg/kg
[33] = subcutaneous single dose 4 mg/kg
[34] = subcutaneous single dose 8 mg/kg
[35] = subcutaneous single dose 16 mg/kg
[36] = subcutaneous single dose 32 mg/kg
[37] = subcutaneous single dose 64 mg/kg
[38] = subcutaneous single dose 128 mg/kg

| Compound | IC50 [1, 7] [ng/mL] | IC50 [2, 8] [µg/mL] | Selectivity, IC50 (THLE-3)/IC50 (D6) [2] | IC50 [3, 9] [ng/mL] | toxicity in mice (P. berghei in mice [4]) | blood schizonticidal activity, in words (P. berghei in mice [4]) | Mice surviving 60 days/Mice infected and treated (P. berghei in mice [4]; [10]) | Mice surviving 60 days/Mice infected and treated (P. berghei in mice [4]; [11]) | Mice surviving 60 days/Mice infected and treated (P. berghei in mice [4]; [12]) | Mice surviving 60 days/Mice infected and treated (P. berghei in mice [4]; [13]) | Mice surviving 60 days/Mice infected and treated (P. berghei in mice [4]; [14]) | inhibitory activity against chloroquine sensitive malaria strain (D-6), in words ([1]; in vitro) | inhibitory activity against chloroquine resistant malaria strain (W-2), in words ([3]; in vitro) | Mice infected and treated/Mice surviving day 60 [5, 15] | Mice infected and treated/Mice surviving day 60 [5, 16] | Mice infected and treated/Mice surviving day 60 [5, 17] | Mice infected and treated/Mice surviving day 60 [5, 18] | Mice infected and treated/Mice surviving day 60 [5, 19] | Mice infected and treated/Mice surviving day 60 [5, 20] | Mice infected and treated/Mice surviving day 60 [5, 21] | also measured |
| --- | --- | --- | --- | --- | --- | --- | --- | --- | --- | --- | --- | --- | --- | --- | --- | --- | --- | --- | --- | --- | --- |
| OC(c1cc(C(F)(F)F)nc2c(C(F)(F)F)cccc12)C1CCCCN1 (stereo not shown) [Mefloquine, reference compound] | 3.4 (≈ 0.00899 µM) | 2.7 (≈ 7.14 µM) | 794 | 5.6 (≈ 0.0148 µM) | – | – | – | – | – | – | – | – | – | – | – | – | – | – | – | – | – |
| C=C[C@@H]1[C@@H](OC)[C@H](OC)[C@@]23CC24c2cc5cc(OC)ccc5nc2C(=O)N[C@H]4CN13 (stereo partly shown) [Formula I] | 0.47 | 19.4 | 4.1 × 10^4 | 0.43 | no mice showed toxicity | very active | 7/7 | 7/7 | 7/7 | 7/7 | 7/7 | equally potent inhibitory activity | equally potent inhibitory activity | 5/5 | 5/5 | 5/5 | 5/5 | 5/5 | 5/5 | 5/5 | Mice infected and treated/Mice surviving day 60 [5, 22]: 5/5; Mice infected and treated/Mice surviving day 60 [5, 23]: 5/5; Mice infected and treated/Mice surviving day 60 [5, 24]: 5/5; Mice infected and treated/Mice surviving day 60 [5, 25]: 5/5; Mice infected and treated/Mice surviving day 60 [5, 26]: 5/5; Mice infected and treated/Mice surviving day 60 [5, 27]: 5/5; Mice infected and treated/Mice surviving day 60 [5, 28]: 5/5; Mice infected and treated/Mice surviving day 60 [5, 29]: 5/5; Mice infected and treated/Mice surviving day 60 [5, 30]: 5/5; protection from malaria (oral prophylactic activity) [5]: completely protected; activity by the subcutaneous route of administration, in words (P. berghei in mice [6]): excellent activity; Mice surviving 60 days/Mice infected and treated (P. berghei in mice [6]; [31]): 4/5; Mice surviving 60 days/Mice infected and treated (P. berghei in mice [6]; [32]): 5/5; Mice surviving 60 days/Mice infected and treated (P. berghei in mice [6]; [33]): 5/5; Mice surviving 60 days/Mice infected and treated (P. berghei in mice [6]; [34]): 5/5; Mice surviving 60 days/Mice infected and treated (P. berghei in mice [6]; [35]): 5/5; Mice surviving 60 days/Mice infected and treated (P. berghei in mice [6]; [36]): 5/5; Mice surviving 60 days/Mice infected and treated (P. berghei in mice [6]; [37]): 5/5; Mice surviving 60 days/Mice infected and treated (P. berghei in mice [6]; [38]): 5/5 |
| CCN(CC)CCCC(C)Nc1ccnc2cc(Cl)ccc12 (stereo not shown) [Chloroquine, reference compound] | – | – | 463 | – | – | – | 0/7 | 0/7 | 2/7 | 4/7 | 0/7 | – | – | – | – | – | – | – | – | – | IC50 ([1]; Plasmodium falciparum, D6, read-out: IC50 D6 Strain): 6.3 ng/mL (≈ 0.0197 µM); IC50 ([2]; THLE3, 72 h): 2.92 µg/mL (≈ 9.13 µM); IC50 ([3]; Plasmodium falciparum, W2, read-out: IC50 W2 Strain): 108 ng/mL (≈ 0.338 µM) |
| C=C[C@@H]1[C@H]2OCOC2[C@@]23CC24c2nc5ccc(OC)cc5cc2C(=O)N[C@H]4CN13 (stereo partly shown) [Formula II] | 0.29 | 18.9 | 7.0 × 10^4 | 0.33 | no mice showed toxicity | very active | 7/7 | 7/7 | 7/7 | 7/7 | 7/7 | equally potent inhibitory activity | equally potent inhibitory activity | 5/5 | 5/5 | 5/5 | 5/5 | 5/5 | 5/5 | 5/5 | Mice infected and treated/Mice surviving day 60 [5, 22]: 5/5; Mice infected and treated/Mice surviving day 60 [5, 23]: 5/5; Mice infected and treated/Mice surviving day 60 [5, 24]: 5/5; Mice infected and treated/Mice surviving day 60 [5, 25]: 5/5; Mice infected and treated/Mice surviving day 60 [5, 26]: 5/5; Mice infected and treated/Mice surviving day 60 [5, 27]: 5/5; Mice infected and treated/Mice surviving day 60 [5, 28]: 5/5; Mice infected and treated/Mice surviving day 60 [5, 29]: 5/5; Mice infected and treated/Mice surviving day 60 [5, 30]: 5/5; protection from malaria (oral prophylactic activity) [5]: completely protected; activity by the subcutaneous route of administration, in words (P. berghei in mice [6]): excellent activity; Mice surviving 60 days/Mice infected and treated (P. berghei in mice [6]; [31]): 4/5; Mice surviving 60 days/Mice infected and treated (P. berghei in mice [6]; [32]): 5/5; Mice surviving 60 days/Mice infected and treated (P. berghei in mice [6]; [33]): 5/5; Mice surviving 60 days/Mice infected and treated (P. berghei in mice [6]; [34]): 5/5; Mice surviving 60 days/Mice infected and treated (P. berghei in mice [6]; [35]): 5/5; Mice surviving 60 days/Mice infected and treated (P. berghei in mice [6]; [36]): 5/5; Mice surviving 60 days/Mice infected and treated (P. berghei in mice [6]; [37]): 5/5; Mice surviving 60 days/Mice infected and treated (P. berghei in mice [6]; [38]): 5/5 |

Source: patent US7851508B2, “Natural product derivatives with antimalarial activity” (Radix Pharmaceuticals, Inc., priority 2008, dated 2010)
